Measurements taken from patent US20260109732A1, “LIPID AMINES” (ModernaTX, Inc., priority 2021, published 2026).
Counter-ions that a name gives are not always drawn.

Legend:
[1] = Diameter and PDI from DLS measurements of mRNA nanoparticles with lipid amines; format: physicochemical
Experimental: (§1) Lipids are dissolved in ethanol at a concentration of 24 mg/mL and molar ratios of 49.0:11.2:39.3:0.5 (IL1:DSPC:cholesterol:PEG-DMG-2K) and mixed with the acidification buffer (45 mM acetate buffer at pH 4). The lipid solution and acidification buffer are mixed using a multi-inlet vortex mixer at a 3:7 volumetric ratio of lipid:buffer for mixer 1 and mixer 2 and a 1:3 volumetric ratio of lipid:buffer (25% ethanol) for mixer 3. After a 5 second residence time, the resulting nanoparticles are mixed with 55 mM sodium acetate at pH 5.6 at a volumetric ratio of 5:7 of nanoparticle:buffer. See Table 2a for mixing parameters. The resulting dilute nanoparticles are then buffer exchanged and concentrated using tangential flow filtration (TFF) into a final buffer containing 5 mM sodium acetate pH 5.0. Then a 70% sucrose solution in 5 mM acetate buffer at pH 5 is subsequently added.
(§2) The resulting nanoparticles at a lipid concentration of 7.33 mg/mL in 5 mM acetate (pH 5) and 75 g/L sucrose are mixed with mRNA (luciferease or CFTR) at a concentration of 0.625 mg/mL in 42.5 mM sodium acetate pH 5.0, with N:P of 4.93. The nanoparticle solution and nanoparticles are mixed using a multi-inlet vortex mixer at a 3:2 volumetric ratio of nanoparticle:mRNA. Once loaded with mRNA, these intermediate nanoparticles undergo a 300 second residence time prior addition of neutralization buffer containing 120 mM TRIS pH 8.12 at a volumetric ratio of 5:1 of nanoparticle:buffer.
(§3) For HeLa studies evaluating luciferase protein expression, PEG-DMG-2K dissolved in a 20 mM TRIS buffer (pH 7.5) is added to the neutralized intermediate nanoparticle solution at a ratio of 1:6, bringing the solution to the final molar ratios of IL1:DSPC:cholesterol:PEG-DMG-2K of 48.5:11.1:38.9:1.5%. This nanoparticle formulation is then modified with lipid amines. In a typical example, nanoparticle formulation at a concentration of 0.18 mg/mL mRNA and a 0.56 mL volume is modified with lipid amine SA50 (467.2 nmol) prepared in buffer containing 20 mM TRIS, 14.3 mM sodium acetate, 32 g/L sucrose and 140 mM NaCl-pH 7.5 at a volumetric ratio of 1:1 of nanoparticle:buffer.
(§4) For HeLa studies evaluating CFTR protein expression, the intermediate nanoparticle formulation (1 mL, 0.415 mg mRNA) is mixed with a buffer containing 20 mM TRIS (pH 7.5), 0.9 mg/mL PEG-DMG-2K and lipid amine SA50 (647.1 nmol) at a volumetric ratio of 6:1 of nanoparticle:buffer. The resulting nanoparticle suspension undergoes concentration using a centrifugal filtration device (100 kDa molecular weight cut-off) and is diluted in running buffer (20 mM TRIS, 14.3 mM sodium acetate, and 32 g/L sucrose, pH 7.5) with a 300 mM NaCl solution to a final buffer matrix containing 70 mM NaCl.
(§5) Both resulting nanoparticle suspensions are filtered through a 0.8/0.2 μm capsule filter and filled into glass vials at an mRNA strength of about 0.1-1 mg/mLBliophysical data (Diameter and PDI from DLS measurements and Encapsualtion using Ribogreen assay) for both luciferase and CFTR mRNA nanoparticles with lipid amines is shown in Tables 2c and d, respectively.

[2] = tested on: HeLa cells; assay: Luciferase Protein Expression Assay in HeLa Cells; format: cell-based, Human; conditions: LNPs encapsulating Luciferase mRNA, 25 ng per well, N=4 wells; 5 h serum-free then 24 h; ONE-Glo
Experimental: as §3
(§6) Lipid nanoparticle compositions were prepared in a manner analogous to that in example 2. To evaluate LNP cellular uptake and protein expression In Vitro, HeLa cells from ATCC.org (ATCC CCL-2) are used. The cells are cultured in complete Minimum Essential Medium (MVEM) and are plated in 96 well Cell Carrier Ultra plate with PDL coated surface (PerkinElmer) prior to running an experiment.
Cells were transfected with buffer control (PBS) or LNPs encapsulating Luciferase mRNA (25 ng per well; N=4 replicate wells) in serum-free MEM media. LNP transfected cells were incubated for 5 h, followed by media removal and supplementation with complete MEM media. Cells were further incubated in complete MEM media overnight (24 h). Following the 24 hr incubation, luciferase protein expression was measured using the ONE-Glo™ Luciferase Assay (Promega). Cells were lysed using 1× Passive Lysis Buffer (Cat. #E194A) for 10 min in a microplate mixer at room temperature. Luciferase in the supernatant was measured by adding Luciferase Assay Reagent (Cat. #E151A) containing luciferin. Bioluminescence was then immediately measured on a Synergy H1 plate reader (BioTek). The results shown in Table 3a show the Average Relative Light Units (RLU) of each sample tested.

[3] = tested on: HeLa cells; assay: CFTR Protein Expression Assay in HeLa Cells; format: cell-based, Human; conditions: LNPs encapsulating CFTR mRNA, N=4 wells; 5 h serum-free then 24 h; immunofluorescence vs PBS control
Experimental: as §4, §6
Buffer control (PBS) and LNPs encapsulating cystic fibrosis transmembrane conductance regulator (CFTR) mRNA were dosed with MEM media in the absence of serum (N=4 replicate wells). LNP transfected cells were incubated for 5 h, followed by media removal and supplementation with complete MEM media. Cells were further incubated in complete MEM media overnight (24 h).
Following 24 hr incubation, the cells were fixed with PFA and processed for immunofluorescence (IF) using an anti-CFTR rabbit monoclonal antibody. Briefly, the cells were permeabilized with 0.5% TX-100 for 10 min, blocked with 3% bovine serum albumin (BSA)+PBST for 1 hr at room temperature, and incubated with primary anti-CFTR monoclonal antibody overnight at 4° C. Following primary antibody incubation, the cells were incubated with Alexa 488 conjugated secondary antibody for 30 mi and stained with DAPI and HCS CellMask Blue stain. Between different incubation steps the cells were either washed with PBS or PBST. Cells were imaged using Opera Phoenix spinning disk confocal microscope (PerkinElmer), and CFTR protein expression was detected using the 488 nm channel. The image analysis was performed in Harmony 4.9, with main analysis output being CFTR intensity per cell. The results shown in Table 3b show fold-change in CFTR signal intensity per cell compared to buffer (PBS) control (NA=not available).

[4] = Encapsulation of mRNA nanoparticles with lipid amines using Ribogreen assay; format: physicochemical
Experimental: as §1, §2, §3, §4, §5

[5] = CFTR mRNA nanoparticle with lipid amine
[6] = Luciferase mRNA nanoparticle modified with lipid amine

| Structure (SMILES) | Diameter (nm) [1, 5] [nm] | PDI [1, 5] | Diameter (nm) [1, 6] [nm] | PDI [1, 6] | Average Relative Light Units ± Standard Deviation [2] [Relative Light Units] | Average fold-change in CFTR signal intensity per cell compared to buffer control ± standard deviation [3] [fold-change] | % Encapsulation (Ribogreen) [4, 5] [%] | % Encapsulation (Ribogreen) [4, 6] [%] |
| --- | --- | --- | --- | --- | --- | --- | --- | --- |
| CC[C@H](CC[C@@H](C)[C@H]1CC[C@H]2[C@@H]3CC=C4C[C@@H](OC(=O)CCC(=O)N(CCCC(C)(C)N)CCC(C)(C)N)CC[C@]4(C)[C@H]3CC[C@]12C)C(C)C [SA167, (3S,8S,9S,10R,13R,14S,17R)-17-((2R,5R)-5-ethyl-6-methylheptan-2-yl)-10,13-dimethyl-2,3,4,7,8,9,10,11,12,13,14,15,16,17-tetradecahydro-1H-cyclopenta[a]phenanthren-3-yl 4-((3-amino-3-methylbutyl)(4-amino-4-methylpentyl)amino)-4-oxobutanoate dihydrochloride] | 75.1 | 0.16 | 75 | 0.15 | 38742.4 ± 6037.5 | 14.9 ± 1.4 | 100 | 98.7 |
| CCC(N)CCNCCCCN(CCC(N)CC)C(=O)O[C@H]1CC[C@@]2(C)C(=CC[C@H]3[C@@H]4CC[C@H]([C@H](C)CCCC(C)C)[C@@]4(C)CC[C@@H]32)C1.Cl.Cl.Cl (stereo partly drawn) [SA127, (3S,8S,9S,10R,13R,14S,17R)-10,13-dimethyl-17-((R)-6-methylheptan-2-yl)-2,3,4,7,8,9,10,11,12,13,14,15,16,17-tetradecahydro-1H-cyclopenta[a]phenanthren-3-yl (3-aminopentyl)(4-((3-aminopentyl)amino)butyl)carbamate trihydrochloride] | 74.1 | 0.12 | 74 | 0.17 | 41246.9 ± 5672.4 | 20.1 ± 1.9 | 99.5 | 99.7 |
| CC(C)CCC[C@@H](C)[C@H]1CC[C@H]2[C@@H]3CC=C4C[C@@H](OC(=O)N(CCCN)CCCCCCCCCCN)CC[C@]4(C)[C@H]3CC[C@]12C [SA95, (3S,8S,9S,10R,13R,14S,17R)-10,13-Dimethyl-17-((R)-6-methylheptan-2-yl)-2,3,4,7,8,9,10,11,12,13,14,15,16,17-tetradecahydro-1H-cyclopenta[a]phenanthren-3-yl (10-aminodecyl)(3-aminopropyl)carbamate dihydrochloride] | 83.6 | 0.14 | 75 | 0.20 | 22952.2 ± 5937.7 | 4.2 ± 0.8 | 99.3 | 99.7 |
| CC[C@H](CC[C@@H](C)[C@H]1CC[C@H]2[C@@H]3CC=C4C[C@@H](OC(=O)CCCC(=O)N(CCCCNCCC(N)(CC)CC)CCC(N)(CC)CC)CC[C@]4(C)[C@H]3CC[C@]12C)C(C)C [SA182, (3S,8S,9S,10R,13R,14S,17R)-17-((2R,5R)-5-ethyl-6-methylheptan-2-yl)-10,13-dimethyl-2,3,4,7,8,9,10,11,12,13,14,15,16,17-tetradecahydro-1H-cyclopenta[a]phenanthren-3-yl 5-((3-amino-3-ethylpentyl)(4-((3-amino-3-ethylpentyl)amino)butyl)amino)-5-oxopentanoate trihydrochloride] | 72 | 0.13 | 73 | 0.14 | 38564.9 ± 12453 | 13.2 ± 0.9 | 98.0 | 99.0 |
| CC[C@H](CC[C@@H](C)[C@H]1CC[C@H]2[C@@H]3CC=C4C[C@@H](OC(=O)N(CCCCCCCC(C)(C)N)CCC(C)(C)N)CC[C@]4(C)[C@H]3CC[C@]12C)C(C)C [SA153, (3S,8S,9S,10R,13R,14S,17R)-17-((2R,5R)-5-ethyl-6-methylheptan-2-yl)-10,13-dimethyl-2,3,4,7,8,9,10,11,12,13,14,15,16,17-tetradecahydro-1H-cyclopenta[a]phenanthren-3-yl (3-amino-3-methylbutyl)(8-amino-8-methylnonyl)carbamate dihydrochloride] | 69.3 | 0.12 | 72 | 0.15 | 35859.3 ± 5894.9 | 17.5 ± 1.4 | 98.5 | 95.8 |
| CC(C)CCC[C@@H](C)[C@H]1CC[C@H]2[C@@H]3CC=C4C[C@@H](OC(=O)N(CCCN)CCCCOCCCN)CC[C@]4(C)[C@H]3CC[C@]12C [SA61, (3S,8S,9S,10R,13R,14S,17R)-10,13-Dimethyl-17-((R)-6-methylheptan-2-yl)-2,3,4,7,8,9,10,11,12,13,14,15,16,17-tetradecahydro-1H-cyclopenta[a]phenanthren-3-yl (4-(3-aminopropoxy)butyl)(3-aminopropyl)carbamate dihydrochloride] | 71.3 | 0.11 | 77 | 0.16 | 14343.1 ± 5298.1 | 7.2 ± 0.4 | 99.4 | 99.1 |
